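How tested: cells in 96-well plates exposed to compound for 48 hours at five concentrations. Abbreviation: GI50, concentration required for 50% inhibition of growth.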 Activity calls are given as the source filed them. Cut-off read from the data, not from the text of the source: active = GI50 up to about 1.1 µM and inactive = higher.
Legend:
Test in all cases: NCI tumour cell line growth inhibition, 48 h
SNB-75 = test system: SNB-75
MOLT-4 = test system: MOLT-4
ACHN = test system: ACHN
CAKI-1 = test system: CAKI-1
NCI-H23 = test system: NCI-H23
UACC-62 = test system: UACC-62
UO-31 = test system: UO-31
HL-60 = test system: HL-60
HOP-62 = test system: HOP-62
786-0 = test system: 786-0
DU-145 = test system: DU-145
NCI/ADR-RES = test system: NCI/ADR-RES
Hs-578T = test system: Hs-578T
M14 = test system: M14
TK-10 = test system: TK-10
HCC 2998 = test system: HCC 2998
OVCAR-5 = test system: OVCAR-5
HCT-15 = test system: HCT-15
NCI-H226 = test system: NCI-H226
SK-MEL-5 = test system: SK-MEL-5

Row | Structure (SMILES) | GI50 (SNB-75) | GI50 (MOLT-4) | GI50 (ACHN) | GI50 (CAKI-1) | GI50 (NCI-H23) | GI50 (UACC-62) | GI50 (UO-31) | GI50 (HL-60) | GI50 (HOP-62) | GI50 (786-0) | GI50 (DU-145) | GI50 (NCI/ADR-RES) | GI50 (Hs-578T) | GI50 (M14) | GI50 (TK-10) | GI50 (HCC 2998) | GI50 (OVCAR-5) | GI50 (HCT-15) [µM] | GI50 (NCI-H226) | GI50 (SK-MEL-5)
1 | O=C(C(Cl)Cl)N(O)c1ccccc1OCc1ccccc1 | 29.4 µM (inactive) | 41.6 µM (inactive) | 32.8 µM (inactive) | 85.9 µM (inactive) | > 100 µM (inactive) | 24.3 µM (inactive) | 36.9 µM (inactive) | 27.6 µM (inactive) | > 100 µM (inactive) | 83.2 µM (inactive) | 17 µM (inactive) | 22.8 µM (inactive) | 19.5 µM (inactive) | > 100 µM (inactive) | 56 µM (inactive) | 1.9 µM (inactive) | > 100 µM (inactive) | 44.2 | 78.3 µM (inactive) | –
2 | Cc1ccc(O)c(C2=CC3=NNC(=O)C3C(c3cccc(Cl)c3)C2)c1 (stereo not drawn) | 18.5 µM (inactive) | 46.2 µM (inactive) | 30.5 µM (inactive) | 32.5 µM (inactive) | 36.7 µM (inactive) | 24.9 µM (inactive) | 71.6 µM (inactive) | 51.9 µM (inactive) | 58.9 µM (inactive) | 52.1 µM (inactive) | 43.4 µM (inactive) | 50.4 µM (inactive) | 36.3 µM (inactive) | 52 µM (inactive) | 28.1 µM (inactive) | 20.7 µM (inactive) | 51.6 µM (inactive) | 30.6 | – | 32.1 µM (inactive)
3 | CC[C@H]1OC([C@H](O)C/C=C\C#C[Si](C)(C)C)C/C=C\C[C@H]1O[Si](C)(C)C(C)(C)C (stereo partly drawn) | > 100 µM (inactive) | > 100 µM (inactive) | > 100 µM (inactive) | > 100 µM (inactive) | > 100 µM (inactive) | > 100 µM (inactive) | 54.5 µM (inactive) | – | > 100 µM (inactive) | > 100 µM (inactive) | > 100 µM (inactive) | > 100 µM (inactive) | > 100 µM (inactive) | > 100 µM (inactive) | – | > 100 µM (inactive) | > 100 µM (inactive) | > 100 | > 100 µM (inactive) | > 100 µM (inactive)
4 | O=C1/C(=C/c2ccccc2[N+](=O)[O-])N=C(c2ccccc2)N1C1Nc2cc3c(cc2S1)NC(N1C(=O)/C(=C/c2ccccc2[N+](=O)[O-])N=C1c1ccccc1)S3 (stereo not drawn) | > 100 µM (inactive) | 19.3 µM (inactive) | 28.4 µM (inactive) | 39.7 µM (inactive) | 29 µM (inactive) | – | 24.1 µM (inactive) | 24 µM (inactive) | 89.5 µM (inactive) | 22.3 µM (inactive) | 30.8 µM (inactive) | 25.3 µM (inactive) | 50 µM (inactive) | 68.5 µM (inactive) | 72.4 µM (inactive) | 16.7 µM (inactive) | > 100 µM (inactive) | 32.8 | 31.5 µM (inactive) | 42.1 µM (inactive)
5 | OC(c1ccccc1)C(F)(F)c1nc2ccccc2o1 (stereo not drawn) | > 100 µM (inactive) | 57.3 µM (inactive) | > 100 µM (inactive) | > 100 µM (inactive) | > 100 µM (inactive) | > 100 µM (inactive) | > 100 µM (inactive) | > 100 µM (inactive) | > 100 µM (inactive) | > 100 µM (inactive) | 67.5 µM (inactive) | 89.3 µM (inactive) | > 100 µM (inactive) | > 100 µM (inactive) | > 100 µM (inactive) | > 100 µM (inactive) | – | > 100 | > 100 µM (inactive) | 77.1 µM (inactive)
6 | FC(F)(Sc1nc2ccccc2[nH]1)c1nc2ccccc2o1 | > 100 µM (inactive) | > 100 µM (inactive) | > 100 µM (inactive) | > 100 µM (inactive) | > 100 µM (inactive) | > 100 µM (inactive) | > 100 µM (inactive) | – | > 100 µM (inactive) | > 100 µM (inactive) | > 100 µM (inactive) | > 100 µM (inactive) | > 100 µM (inactive) | > 100 µM (inactive) | > 100 µM (inactive) | > 100 µM (inactive) | > 100 µM (inactive) | > 100 | > 100 µM (inactive) | > 100 µM (inactive)
7 | Sc1ncc(-c2cncc(-c3cnc(S)nc3)n2)cn1 | > 100 µM (inactive) | > 100 µM (inactive) | > 100 µM (inactive) | > 100 µM (inactive) | > 100 µM (inactive) | > 100 µM (inactive) | > 100 µM (inactive) | > 100 µM (inactive) | – | > 100 µM (inactive) | > 100 µM (inactive) | > 100 µM (inactive) | > 100 µM (inactive) | > 100 µM (inactive) | > 100 µM (inactive) | > 100 µM (inactive) | > 100 µM (inactive) | > 100 | > 100 µM (inactive) | > 100 µM (inactive)
8 | CCCCC1Nc2ccccc2-c2ccnc(Cl)c21 (stereo not drawn) | 13.5 µM (inactive) | 17.8 µM (inactive) | 20.8 µM (inactive) | 3.61 µM (inactive) | 16.5 µM (inactive) | 13.7 µM (inactive) | 20 µM (inactive) | 17.8 µM (inactive) | 19.3 µM (inactive) | 19.5 µM (inactive) | 20.5 µM (inactive) | 27.7 µM (inactive) | 15 µM (inactive) | 19.1 µM (inactive) | 33 µM (inactive) | 38.7 µM (inactive) | – | 16.9 | 17.6 µM (inactive) | 15.2 µM (inactive)
9 | CC1(/C=C/CCSc2ccccc2)CC(=O)C2CC1C2(C)C (stereo not drawn) | 11.2 µM (inactive) | 4.67 µM (inactive) | 19 µM (inactive) | 26.6 µM (inactive) | 12.1 µM (inactive) | 8.04 µM (inactive) | 5.61 µM (inactive) | – | 36.9 µM (inactive) | 20.2 µM (inactive) | 44.3 µM (inactive) | 11 µM (inactive) | 22.9 µM (inactive) | 23.8 µM (inactive) | 14.9 µM (inactive) | 12.5 µM (inactive) | 44.9 µM (inactive) | 15.8 | 24.8 µM (inactive) | 8.71 µM (inactive)
10 | CC1(C)C2CCC(O)(C2)C1N (stereo not drawn) | > 100 µM (inactive) | > 100 µM (inactive) | > 100 µM (inactive) | > 100 µM (inactive) | > 100 µM (inactive) | > 100 µM (inactive) | > 100 µM (inactive) | – | > 100 µM (inactive) | > 100 µM (inactive) | > 100 µM (inactive) | > 100 µM (inactive) | > 100 µM (inactive) | > 100 µM (inactive) | > 100 µM (inactive) | > 100 µM (inactive) | > 100 µM (inactive) | > 100 | > 100 µM (inactive) | > 100 µM (inactive)
11 | COC(=O)C1CC2CCC1(O[Si](C(C)C)(C(C)C)C(C)C)C(O)C2 (stereo not drawn) | 21.9 µM (inactive) | 10.9 µM (inactive) | 22.8 µM (inactive) | 38.5 µM (inactive) | 20.9 µM (inactive) | 37 µM (inactive) | 16.6 µM (inactive) | 13.1 µM (inactive) | 18.4 µM (inactive) | 16.9 µM (inactive) | 16.4 µM (inactive) | 31.8 µM (inactive) | 18.1 µM (inactive) | 17.3 µM (inactive) | – | 21.8 µM (inactive) | 14.2 µM (inactive) | 16.9 | 21.2 µM (inactive) | 23.1 µM (inactive)
12 | C=C1C(=O)O[C@@H]2/C=C(\C)CC/C=C(/COC(C)=O)C[C@@H](OC(C)=O)[C@@H]12 | 50.1 µM (inactive) | 3.45 µM (inactive) | 4.38 µM (inactive) | 7.48 µM (inactive) | 13.6 µM (inactive) | 12.4 µM (inactive) | 8.87 µM (inactive) | 2.03 µM (inactive) | 22.9 µM (inactive) | 5.18 µM (inactive) | 6.79 µM (inactive) | 17.9 µM (inactive) | 10.4 µM (inactive) | 12.6 µM (inactive) | 7.83 µM (inactive) | 16.5 µM (inactive) | 17.4 µM (inactive) | 3.28 | 19.8 µM (inactive) | 11.6 µM (inactive)
13 | CCN1CCCC(C#N)(c2ccccc2)CC1 (stereo not drawn) | 99.5 µM (inactive) | > 100 µM (inactive) | > 100 µM (inactive) | > 100 µM (inactive) | > 100 µM (inactive) | – | > 100 µM (inactive) | > 100 µM (inactive) | > 100 µM (inactive) | > 100 µM (inactive) | > 100 µM (inactive) | > 100 µM (inactive) | 61.7 µM (inactive) | > 100 µM (inactive) | > 100 µM (inactive) | > 100 µM (inactive) | > 100 µM (inactive) | > 100 | – | > 100 µM (inactive)
14 | Oc1ccc(-c2nc3cc(C(F)(F)F)ccc3n2CC2CCCN3CCCCC23)cc1 (stereo not drawn) | 14.9 µM (inactive) | 15 µM (inactive) | 15 µM (inactive) | 18 µM (inactive) | 16.5 µM (inactive) | – | 11.7 µM (inactive) | 3.01 µM (inactive) | 12.1 µM (inactive) | 17 µM (inactive) | 17.1 µM (inactive) | 16.5 µM (inactive) | 15.8 µM (inactive) | 16.3 µM (inactive) | 16.9 µM (inactive) | 9.75 µM (inactive) | 13.8 µM (inactive) | 16.1 | 16.3 µM (inactive) | 14.1 µM (inactive)
15 | O=C1CCCC/C1=C\c1ccc([N+](=O)[O-])cc1 | 18.3 µM (inactive) | 5.48 µM (inactive) | 24 µM (inactive) | 18.5 µM (inactive) | 24 µM (inactive) | 16.7 µM (inactive) | 19.3 µM (inactive) | 42.5 µM (inactive) | 11.5 µM (inactive) | 14.9 µM (inactive) | 39.1 µM (inactive) | 19.5 µM (inactive) | 28.3 µM (inactive) | 18.4 µM (inactive) | 8.67 µM (inactive) | 12.3 µM (inactive) | 54.2 µM (inactive) | – | – | 27.2 µM (inactive)

Source: ChEMBL document CHEMBL1201862, “PubChem BioAssay data set” (2004)
